Tests used:
FgenL model RNA = test: TapeStation Assay, FgenL model RNA; format: biochemical, Trichoderma atroviride; set-up: Conc. FgenL#1 / Conc. FgenL#2: unit not given here; details: for % Control N = 1 / % Control N = 2 / % Control Average: FgenL RNA, 20 mM amino acids, 50 mM CAPS pH 11, 50° C. 15 min; for % Control N = 1 / % Control N = 2: vs Time 0; for Conc. FgenL#1 / Conc. FgenL#2: intact FgenL RNA after 15 min at 50° C.; for Conc. FgenL#1: 20 mM amino acids in 50 mM CAPS pH 11, run #1; for Conc. FgenL#2: 20 mM amino acids in 50 mM CAPS pH 11, run #2; for % Control Average: vs Time 0, Avg N=2
Protocol: These assays were performed with amino acids and compared to a no-degradation baseline control to gauge degree of protection imparted by the amino acid. Multiple functional assay approaches were used where differing endpoints were measured including a droplet digital PCR (ddPCR) assay where intact RNA sequence was quantitated, a size exclusion base hydrolysis degradation assay that used a size exclusion column to determine the degree of degradation occurring to an mRNA construct, and finally, a TapeStation assay that utilizes capillary electrophoresis and optical detection to measure intact RNA. […] Affinity selection by mass spectrometry (ASMS), native electrospray ionization mass spectrometry (nESI-MS) and nuclear magnetic resonance (NMR) may be used as several complementary approaches to ascertain compound binding to RNA. The latter techniques utilize MS to measure mass of bound compound alone (ASMS), or mass of RNA and bound compound (nESI-MS). The nESI-MS and NMR studies may be conducted to provide direct analytical quantification of resulting complex via measurement of mass (nESI-MS) or chemical shifts (NMR). The ASMS experiment is conducted to determine saturation binding of the compound to RNA where resulting apparent binding constants (KD,App) may be generated. Further descriptions of the functional and binding assays are provided in the section below.
In principle, samples are loaded to the instrument where electrophoresis separates component RNA's on the basis of mass, and subsequently analyzes these optically as they travel through the capillary.
RNA samples were diluted to the appropriate concentration to fall within the linear range of detection for the RNA ScreenTape Assay. Model Chi18 or FgenL RNAs were diluted to 50 ng/μL in 50 mM CAPS buffer pH 11. Amino acid stocks were made up in 50 mM CAPS pH 11 and re-adjusted to >pH 11 after solubilization. […] The samples were aliquoted to PCR tubes for each time point (Time 0 or 15 minutes). Degradation reaction: Samples were incubated at 50° C. for 0 to 15 minutes in a thermocycler, removed at the appropriate time point and placed on ice. Time 0 samples remained on ice.

HEK-293T cell monolayer = format: cell-based
VSV G pseudotyped virus = tested on: VSV G pseudotyped virus; set-up: species or system BALB/c mice; details: mouse

SMILES	% Control N = 1 (FgenL model RNA)	% Control N = 2 (FgenL model RNA)	Conc. FgenL#1 (FgenL model RNA)	Conc. FgenL#2 (FgenL model RNA)	% Control Average (FgenL model RNA)	IVE of the Tris/Sucrose LNP formulation upon inclusion of glutamic acid (HEK-293T cell monolayer)	effect on in vitro expression (IVE) of the Tris/Sucrose LNP formulation (HEK-293T cell monolayer)	stabilization as measured by functional immunogenic response in vivo (VSV G pseudotyped virus)
C[C@H](N)C(=O)O [Alanine]	28.8%	23.2%	9.93	8.05				
N=C(N)NCCC[C@H](N)C(=O)O [Arginine]	4.2%	3.3%	1.46	1.15	3.8%			
NC(=O)C[C@H](N)C(=O)O [Asparagine]	21.9%	15.0%	7.56	5.19	18.4%			
N[C@@H](CC(=O)O)C(=O)O [Aspartic acid]	107.0%	91.1%	36.9	31.6	99.0%			
N[C@@H](CS)C(=O)O [Cysteine]	4.9%	5.9%	1.7	2.05	5.4%			
N[C@@H](CCC(=O)O)C(=O)O [Glutamic acid]	89.9%	76.1%	31	26.4	83.0%	70%	improved	significant stabilization
NC(=O)CC[C@H](N)C(=O)O [Glutamine]	29.0%	10.3%	10	3.57	19.6%			
N[C@@H](CCC(=O)N[C@@H](CS)C(=O)NCC(=O)O)C(=O)O [Glutathione]	42.9%	35.7%	14.8	12.4	39.3%			
NCC(=O)O [Glycine]	39.4%	37.2%	13.6	12.9	38.3%			
N[C@@H](Cc1c[nH]cn1)C(=O)O [Histidine]	4.2%	3.7%	1.46	1.3	4.0%			
O=C(O)[C@@H]1C[C@@H](O)CN1 [Hydroxyproline]	14.8%	10.7%	5.12	3.73	12.8%			
CC[C@H](C)[C@H](N)C(=O)O [Isoleucine]	12.2%	9.5%	4.22	3.28	10.8%			
CC(C)C[C@H](N)C(=O)O [Leucine]	24.3%	16.9%	8.37	5.85	20.6%			
NCCCC[C@H](N)C(=O)O [Lysine]	19.9%	17.6%	6.85	6.12	18.7%			
CSCC[C@H](N)C(=O)O [Methionine]	35.4%	32.6%	12.2	11.3	34.0%			
N[C@@H](Cc1ccccc1)C(=O)O [Phenylalanine]	13.8%	6.9%	4.76	2.4	10.4%			
O=C(O)[C@@H]1CCCN1 [Proline]	21.8%	20.3%	7.52	7.03	21.0%			
N[C@@H](CO)C(=O)O [Serine]	37.7%	31.4%	13	10.9	34.5%			
C[C@@H](O)[C@H](N)C(=O)O [Threonine]	49.3%	34.6%	17	12	41.9%			
N[C@@H](Cc1c[nH]c2ccccc12)C(=O)O [Tryptophan]	3.5%	1.5%	1.21	0.51	2.5%			
N[C@@H](Cc1ccc(O)cc1)C(=O)O [Tyrosine]	33.9%	21.9%	11.7	7.59	27.9%			
CC(C)[C@H](N)C(=O)O [Valine]	25.4%	18.4%	8.77	6.38	21.9%			

Reference: US20240122865A1, “Methods of Protecting RNA” (Pfizer Inc., priority 2021, published 2024)
